According to patent publication US20080241274A1 (ZIOPHARM Oncology, Inc., priority 2006, published 2008):
Where two headings read alike, the source gives them in different places.

What was measured:
A549 NSCLC = experiment: Monolayer assay (DNA content by propidium iodide), single agents and indibulin combinations, A549; assay type: cell-based, human; details: for IC50: Homo sapiens
Description: (§1) The monolayer assay determines the in vitro antitumor activity of test compounds and their capacity to inhibit survival and proliferation of established tumor cell lines. These effects can be determined by establishing the number of viable cells based on measuring the DNA content using propidium iodide. […] Between 5,000 and 10,000 cells were seeded in 96 well plates on Day 0 and the compounds were added 1 day later and incubated for 4 days. The activity was assessed by their IC50 and IC70 values.
(§2) Growth IC50 and IC70 values (Table 2) were determined using XLfit software package, and used to set the concentration ranges and drug ratios for the synergy detection part of the study.
(§3) Chou-Talalay median effect method was used to quantitatively characterize drug-drug interaction [Chou T. C. Theoretical basis, experimental design, and computerized simulation of synergism and antagonism in drug combination studies. Pharmacol Rev. 2006 September; 58(3):621-81]. […] Mixtures of the drugs at multiples of their single agent IC50's were prepared, as well as serial dilutions of the mixture. Additionally, single agent dose response was determined for the same concentration ranges as used for combination study.
(§4) The coefficient of interaction (CI(IC50)) at IC50 and coefficient of interaction under optimal experimental concentrations (CI(e)) were determined using CalcuSyn software package (Table 3, tests were performed in quadruplicate, mean values reported). Commonly, experimental values of CI<0.8 are considered synergistic, 0.8<CI<1.2 additive.

[1] = tested on: MCF-7 ER-positive breast cancer; experiment: Monolayer assay (DNA content by propidium iodide), single agents and indibulin combinations, MCF-7; assay type: cell-based, human
Description: as §1, §2, §3, §4

PC3 (prostate) = experiment: Monolayer assay (DNA content by propidium iodide), single agents and indibulin combinations, PC3; assay type: cell-based, human; details: for Combination IC50: PC3, concentration of the named drug in the combination
Description: as §1, §2, §3, §4

[2] = tested on: biotin-labeled calf brain tubulin; experiment: Competition with 3H-colchicine for tubulin binding (SPA beads); parameters: species or system bovine; details: 200-fold molar excess of cold competitor; FIG. 8
Description: Where indicated, a 200-fold molar excess of cold competitor was added. Tubulin heterodimers were then precipitated with streptavidin-coated SPA beads and bound radioactivity was determined. “No tubulin” indicates non-specifically bound radioactivity measured in the absence of biotin-labeled tubulin.

[3] = tested on: purified calf brain tubulin; experiment: Tubulin polymerization, calf brain tubulin; assay type: biochemical, bovine; details: FIG. 9, read-out: IC50 of inhibition of tubulin polymerization
Description: (§5) Tubulin from neuronal tissue is post-translationally modified and the degree of modification increases during neuronal development. Calf brain neuronal tubulin and tubulin from other tissues differ in their post-translational modifications from that of adult bovine brain. […] Tubulin polymerization is given as % over DMSO control.

[4] = tested on: adult bovine brain tubulin; experiment: Tubulin polymerization, adult bovine brain tubulin; assay type: biochemical; details: bovine brain tubulin; at the highest dose tested
Description: as §5

[5] = tested on: axonal microtubules of rat pheochromocytoma (PC12) cells; experiment: Axonal microtubule immunostaining in NGF-differentiated PC12 cells; assay type: cell-based; details: PC12 neurites induced by NGF 5-6 days; 24 h treatment at 2×IC50 concentration
Description: The outgrowth of neurites of PCl2 was induced by NGF for 5-6 days. […] Microtubules within the neurites, were visualized by immunostaining with an antibody recognizing acetylated (axonal) tubulin, leaving the cell bodies unstained.

[6] = tested on: DMBA induced mammary carcinoma; experiment: DMBA induced mammary carcinoma in rats; assay type: in vivo, Rat; details: 46.4 mg/kg/d, 2×(3× week), at sacrifice of control group animals
Description: (§6) The significant differences in pharmacodynamics and safety profile of indibulin make it a strong candidate for development as an anti-cancer drug.

[7] = tested on: U87 glioblastoma xenografts; experiment: U87 glioblastoma xenograft in nu/nu mice; assay type: in vivo, Human
Description: 5×10^6 U87 glioblastoma cells were implanted subcutaneously in immunodeficient nu/nu mice. Treatment started when tumor weight was about 0.15 g (Day 0).
as §6

[8] = tested on: murine renal cell carcinoma RENCA; experiment: Murine renal cell carcinoma RENCA model; assay type: in vivo, Mouse
Description: 1.5×10^6 RENCA cells were injected into the subcapsular space of the kidney through a flank incision (Day 1). […] On Day 21 mice were sacrificed and weight and volume of primary tumors, weight and number of metastases of the lung and metastasis formation in the abdominal lymph nodes determined. […] TNP-470 has shown anti-tumor activity in different animal models and is well established for its use in RENCA.
as §6

[9] = tested on: human vulvar squamous cell carcinoma xenograft (A431); experiment: A431 vulvar squamous cell carcinoma xenograft; assay type: in vivo; details: 27.5 mg/kg/d, 3×(3× week), at sacrifice of control group animals
Description: as §6

[10] = tested on: human ovarian xenograft (SK-OV-3); experiment: SK-OV-3 ovarian xenograft; assay type: in vivo; details: SKOV-3; 100 mg/kg/d, d. 0, 7, 14; at sacrifice of control group animals
Description: as §6

[11] = tested on: series of cancer models (RENCA, DMBA, SK-OV-3, PC-3, A431, U 87, MCF-7, A 549); experiment: Series of cancer models in animals (overall statement); assay type: in vivo
Description: as §6

papillary thyroid cancer = experiment: Phase I study, patient with papillary thyroid cancer; assay type: in vivo, human; details: 400 mg BID continuous treatment
Description: (§7) Treatment is ongoing. […] Treatment is ongoing.

[12] = tested on: ovarian cancer with brain metastases; experiment: Phase I study, patient with ovarian cancer with brain metastases; assay type: in vivo, human; details: 400 mg BID continuous treatment; after 22 days of treatment; person
Description: as §7

[13] = tested on: un-biotinylated calf brain tubulin; details: G. Bacher, Cancer Res. 61, 2001; cited from earlier work
[14] = A549, single agent (combination study)
[15] = MCF7, indibulin + 5-FU (5FU:indibulin 10.9:1), concentration of the named drug in the combination
[16] = MCF7, indibulin + paclitaxel (paclitaxel:indibulin 0.27:1), concentration of the named drug in the combination
[17] = MCF7, indibulin + tamoxifen (tamoxifen:indibulin 100:1), concentration of the named drug in the combination
[18] = MCF7, indibulin + vinorelbine (vinorelbine:indibulin 0.016:1), concentration of the named drug in the combination

## O=C(Nc1ccncc1)C(=O)c1cn(Cc2ccc(Cl)cc2)c2ccccc12 [Indibulin, N-(pyridin-4-yl)-[1-(4-chlorobenzyl)-indol-3-yl]-glyoxylic acid amide]
A549 NSCLC; [14]
  Single Agent IC40: 0.071 µg/mL
  Single Agent IC50: 0.054 µg/mL
  Single Agent IC60: 0.129 µg/mL
  Single Agent IC70: 0.095 µg/mL
A549 NSCLC; A549, indibulin + carboplatin (carboplatin:indibulin 303:1), concentration of the named drug in the combination
  Combination IC70: 0.027 µg/mL
A549 NSCLC; A549, indibulin + erlotinib (erlotinib:indibulin 208:1), concentration of the named drug in the combination
  Combination IC40: 0.021 µg/mL
A549 NSCLC; A549, indibulin + etoposide, concentration of the named drug in the combination
  Combination IC60: 0.068 µg/mL
A549 NSCLC; A549, 96 h, A549, single agent, 4 days incubation, read-out: Growth IC50
  IC50: 0.038 µg/mL
A549 NSCLC; A549, A549, single agent (combination study), read-out: Single Agent IC50
  IC50: 0.092 µg/mL
A549 NSCLC; A549, A549, indibulin + carboplatin (carboplatin:indibulin 303:1), concentration of the named drug in the combination, read-out: Combination IC50
  IC50: 0.011 µg/mL
A549 NSCLC; A549, A549, indibulin + erlotinib (erlotinib:indibulin 208:1), concentration of the named drug in the combination, read-out: Combination IC50
  IC50: 0.03 µg/mL
[1]; Homo sapiens, MCF7, MCF7, single agent (combination study), read-out: Single Agent IC50
  IC50: 0.013 µg/mL
[1]; MCF7, single agent (combination study)
  Single Agent IC84: 53 ng/mL
[1]; [15]
  Combination IC50: 0.005 µg/mL
  Combination IC60: 0.0028 µg/mL
[1]; MCF7, indibulin + doxorubicin, concentration of the named drug in the combination
  Combination IC50: 0.011 µg/mL
[1]; [16]
  Combination IC50: 0.004 µg/mL
  Combination IC84: 10 ng/mL
[1]; [17]
  Combination IC50: 0.004 µg/mL
  Combination IC60: 0.0064 µg/mL
[1]; [18]
  Combination IC50: 0.008 µg/mL
  Combination IC60: 0.006 µg/mL
PC3 (prostate); Homo sapiens, PC3, single agent (combination study), read-out: Single Agent IC50
  IC50: 0.034 µg/mL
PC3 (prostate); indibulin + estramustine
  Combination IC50: 0.014 µg/mL
PC3 (prostate); indibulin + prednisolone
  Combination IC50: 0.012 µg/mL
[2]
  Inhibition of 3H-colchicine binding: about 40%
[3]
  IC50: ~250 nM
[4]
  Inhibition of tubulin polymerization: 25%
[5]
  Effect on axonal microtubules (acetylated tubulin immunostaining): did not affect axonal microtubules
[6]
  Growth Inhibition (%): 99.5%
[7]; U87, 27.5 mg/kg/d, 3×(3× week), at sacrifice of control group animals
  Growth Inhibition (%): 88.8%
[7]; orally administered, s.c. tumors in nu/nu mice, FIG. 11
  Growth of U87 glioblastoma xenografts (in words): inhibits growth
[8]; RENCA, 17.5 mg/kg/d, d. 1-20(5× week), at sacrifice of control group animals
  Growth Inhibition (%): 90%
[8]; oral, daily Day 1-20 (5×/week), Day 21
  Number of lung metastases: trend in reduction of number of lung metastases but was not statistically significant
[8]; oral, daily Day 1-20 (5×/week), primary tumors on Day 21, FIG. 12
  Reduction in tumor volume and weight: statistically significant
[9]
  Growth Inhibition (%): 63%
[10]
  Growth Inhibition (%): 53%
[11]; all models tested
  Anti-tumor activity in all models: strong and statistically significant anti-tumor activity
[11]; animals at efficacious doses
  Neurotoxicity or loss of body weight: no signs of neurotoxicity or loss of body weight
Papillary thyroid cancer; after 15th day of dosing
  Decrease of thyroglobulin level from baseline: 34%
Papillary thyroid cancer; at first assessment
  Decrease of tumor measurements: 11%
Papillary thyroid cancer; person
  Disease status after treatment: stable disease
[12]
  Reduction of CA125 level from baseline: 11%
[13]
  Competition with 3H-colchicine binding: does not compete
